Assay results as given in BigSolDB 2.1.

NC(N)=S
Conditions | solubility (mole fraction)
in ethanol, 292.65 K | 0.0224
in ethanol, 293.85 K | 0.0227
in ethanol, 299.45 K | 0.0256
in ethanol, 302.75 K | 0.0281
in ethanol, 305.85 K | 0.0295
in ethanol, 308.95 K | 0.0324
in ethanol, 309.4 K | 0.0331
in ethanol, 311.65 K | 0.0345
in ethanol, 312.55 K | 0.035
in ethanol, 312.75 K | 0.0353
in ethanol, 313.9 K | 0.0364
in ethanol, 314.35 K | 0.0375
in ethanol, 315.55 K | 0.0384
in ethanol, 316.4 K | 0.0386
in ethanol, 318.2 K | 0.0399
in ethanol, 320 K | 0.0422
in methanol, 298.65 K | 0.0534
in methanol, 301.45 K | 0.0565
in methanol, 304.35 K | 0.0606
in methanol, 307.85 K | 0.0643
in methanol, 309.05 K | 0.0667
in methanol, 311.25 K | 0.0702
in methanol, 314.55 K | 0.0761
in methanol, 319.45 K | 0.0821
in methanol, 321.25 K | 0.0872
